Where two headings read alike, the source gives them in different places.
Columns and labels:
[1] = Octanol-water distribution coefficient (logD pH 7.4) of the labeled tracer; type: physicochemical; details: n-octanol/PBS pH 7.4, room temperature
Description: Approximately 1 MBq of the labeled tracer was dissolved in 1 mL of a 1:1 mixture (by volumes) of phosphate buffered saline (PBS, pH 7.4) and n-octanol in an Eppendorf tube. After vigorous mixing of the suspension for 3 minutes at room temperature, the vial was centrifuged at 15000 g for 5 minutes (Biofuge 15, Heraus Sepatech, Osterode, Germany) and 100 μL aliquots of both layers were measured in a gamma counter. The experiment was repeated at least six times.

[2] = target: T1, SST2 (Homo sapiens, UniProt P30874); experiment: Determination of IC50: competitive binding against [125I]TOC on SST2-transfected CHO cells; details: [125I]TOC reference radioligand, 60 min room temperature
T1 construct: expressed in transfected cells; host or cells: CHO (Chinese hamster ovary) cells
T1 sequence (P30874 whole entry, species assumed): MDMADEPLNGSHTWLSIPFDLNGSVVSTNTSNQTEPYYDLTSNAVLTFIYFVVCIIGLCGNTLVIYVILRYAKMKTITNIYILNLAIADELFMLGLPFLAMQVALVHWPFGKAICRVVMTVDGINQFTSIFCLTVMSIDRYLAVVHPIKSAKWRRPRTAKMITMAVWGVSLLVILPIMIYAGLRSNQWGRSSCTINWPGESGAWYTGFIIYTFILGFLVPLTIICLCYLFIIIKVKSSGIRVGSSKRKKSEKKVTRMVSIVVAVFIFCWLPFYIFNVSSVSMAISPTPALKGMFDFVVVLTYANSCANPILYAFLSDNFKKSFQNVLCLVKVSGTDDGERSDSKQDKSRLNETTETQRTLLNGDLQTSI

[3] = Biodistribution of 18F-labeled SST2 ligands in AR42J tumor-bearing mice; type: in vivo; details: female, CD1 nu/nu, mouse, iv, total radioactivity, 1 h post injection, tail vein
Description: All animal experiments were conducted in accordance with general animal welfare regulations in Germany and the institutional guidelines for the care and use of animals. To establish tumor xenografts, AR42J cells (5×10^6 cells/100 μL) were suspended in Dulbecco modified Eagle medium/Nutrition Mixture F-12 with Glutamax-1 (1:1) and inoculated subcutaneously onto the right shoulder of 8 weeks old, female CD1 nu/nu mice (Charles River, Sulzfeld, Germany). Mice were used for experiments when tumors had grown to a diameter of 5-9 mm (7-15 days after inoculation).
Approximately 0.5-2.0 MBq (0.05-0.25 nmol) of the ^18F-labeled SST2-ligands were injected into the tail vein of AR42J tumor-bearing female CD1 nu/nu mice and sacrificed after 1 h post injection (n=3-5). Selected organs were removed, weighted and measured in a γ-counter.
The Tables 4, 5, and 6 summarize the results of the in vivo mouse experiments. For all biodistribution studies, female CD1 nu/nu mice with AR42J tumor xenografts, were used and sacrificed 1 h post injection.

[4] = AR42J tumor, AR42J tumor, read-out: Tumor % ID/g ± SD
[5] = adrenal glands, read-out: Adrenal glands % ID/g ± SD
[6] = blood, read-out: Blood % ID/g ± SD
[7] = bone, read-out: Bone % ID/g ± SD
[8] = heart, read-out: Heart % ID/g ± SD
[9] = intestine, read-out: Intestine % ID/g ± SD
[10] = kidneys, read-out: Kidneys % ID/g ± SD
[11] = liver, read-out: Liver % ID/g ± SD
[12] = lung, read-out: Lung % ID/g ± SD
[13] = muscle, read-out: Muscle % ID/g ± SD
[14] = pancreas, read-out: Pancreas % ID/g ± SD
[15] = spleen, read-out: Spleen % ID/g ± SD
[16] = stomach, read-out: Stomach % ID/g ± SD

For C[C@@H](O)[C@H](NC(=O)C1CSSCC(NC(=O)C(Cc2ccccc2)NC(=O)CNC(=O)CNC(=O)[C@@H](CC(=O)O)NC(=O)C(CC(=O)O)NC(=O)[C@@H](CNC(=O)c2ccc([Si](F)(C(C)(C)C)C(C)(C)C)cc2)NC(=O)CCC(C(=O)O)N2CCN(CC(=O)O)CCN(CC(=O)O)CCN(CC(=O)O)CC2)C(=O)N[C@@H](Cc2ccc(O)cc2)C(=O)NC(Cc2c[nH]c3ccccc23)C(=O)N[C@@H](CCCCN)C(=O)N[C@@H]([C@@H](C)O)C(=O)N1)C(=O)O (stereo partly shown) (natGa complex, metal not drawn) [[Ga]6], the “LogDpH=7.4” value [1] was −2.15 ± 0.09 and the IC50 [2] was 149 ± 20.3 nM.
For C[C@@H](O)[C@H](NC(=O)C1CSSCC(NC(=O)C(Cc2ccccc2)NC(=O)CNC(=O)CNC(=O)[C@@H](CC(=O)O)NC(=O)C(CC(=O)O)NC(=O)[C@@H](CNC(=O)c2ccc([Si](F)(C(C)(C)C)C(C)(C)C)cc2)NC(=O)CN2CCN(CC(=O)O)CCN(CC(=O)O)CCN(CC(=O)O)CC2)C(=O)N[C@@H](Cc2ccc(O)cc2)C(=O)NC(Cc2c[nH]c3ccccc23)C(=O)N[C@@H](CCCCN)C(=O)N[C@@H]([C@@H](C)O)C(=O)N1)C(=O)O (stereo partly shown) (natGa complex, metal not drawn) [[Ga]8], the “LogDpH=7.4” value [1] was −2.02 ± 0.04 and the IC50 [2] was 58.5 ± 10.8 nM.
In the case of C[C@@H](O)[C@H](NC(=O)C1CSSCC(NC(=O)C(Cc2ccccc2)NC(=O)CNC(=O)CNC(=O)[C@@H](CC(=O)O)NC(=O)C(CC(=O)O)NC(=O)[C@@H](CNC(=O)CN2CCN(CC(=O)O)CCN(CC(=O)O)CCN(CC(=O)O)CC2)NC(=O)c2ccc([Si](F)(C(C)(C)C)C(C)(C)C)cc2)C(=O)N[C@@H](Cc2ccc(O)cc2)C(=O)NC(Cc2c[nH]c3ccccc23)C(=O)N[C@@H](CCCCN)C(=O)N[C@@H]([C@@H](C)O)C(=O)N1)C(=O)O (stereo partly shown) (natGa complex, metal not drawn) [[Ga]9], the “LogDpH=7.4” value [1] is reported as −2.02 ± 0.04 and the IC50 [2] is reported as 63.3 ± 1.75 nM.
With C[C@@H](O)[C@H](NC(=O)C1CSSCC(NC(=O)C(Cc2ccccc2)NC(=O)CNC(=O)CNC(=O)CNC(=O)C(CC(=O)O)NC(=O)[C@@H](CC(=O)O)NC(=O)C(CCCNC(N)=O)NC(=O)[C@@H](CNC(=O)C[N+](C)(C)Cc2ccc([Si](F)(C(C)(C)C)C(C)(C)C)cc2)NC(=O)CN2CCN(CC(=O)O)CCN(CC(=O)O)CCN(CC(=O)O)CC2)C(=O)N[C@@H](Cc2ccc(O)cc2)C(=O)NC(Cc2c[nH]c3ccccc23)C(=O)N[C@@H](CCCCN)C(=O)N[C@@H]([C@@H](C)O)C(=O)N1)C(=O)O (stereo partly shown) (natGa complex, metal not drawn) [[Ga]46] the IC50 [2] was 4.79 ± 0.84 nM, the tissue uptake at 1 h [3, 4] was 23.4 ± 1.07 %ID/g and the tissue uptake at 1 h [3, 5] was 1.71 ± 0.38 %ID/g. It also gave a tissue uptake at 1 h [3, 6] of 0.57 ± 0.24 %ID/g, a tissue uptake at 1 h [3, 7] of 1.21 ± 0.24 %ID/g and a tissue uptake at 1 h [3, 8] of 0.3 ± 0.04 %ID/g. The tissue uptake at 1 h [3, 9] was 1.43 ± 0.35 %ID/g, the tissue uptake at 1 h [3, 10] was 12.6 ± 1.58 %ID/g and the tissue uptake at 1 h [3, 11] was 0.83 ± 0.14 %ID/g. The tissue uptake at 1 h [3, 12] was 3.22 ± 0.53 %ID/g, the tissue uptake at 1 h [3, 13] was 0.1 ± 0.02 %ID/g and the tissue uptake at 1 h [3, 14] was 11.1 ± 2.61 %ID/g. For the same compound, the tissue uptake at 1 h [3, 15] was 0.57 ± 0.14 %ID/g and the tissue uptake at 1 h [3, 16] was 6.51 ± 1.64 %ID/g.
With C[C@@H](O)[C@H](NC(=O)C1CSSCC(NC(=O)C(Cc2ccccc2)NC(=O)CNC(=O)CNC(=O)CNC(=O)C(CC(=O)O)NC(=O)[C@@H](CC(=O)O)NC(=O)C(CNC(=O)CN2CCN(CC(=O)O)CCN(CC(=O)O)CCN(CC(=O)O)CC2)NC(=O)C[N+](C)(C)Cc2ccc([Si](F)(C(C)(C)C)C(C)(C)C)cc2)C(=O)N[C@@H](Cc2ccc(O)cc2)C(=O)NC(Cc2c[nH]c3ccccc23)C(=O)N[C@@H](CCCCN)C(=O)N[C@@H]([C@@H](C)O)C(=O)N1)C(=O)O (stereo partly shown) (natGa complex, metal not drawn) [[Ga]50] the IC50 [2] was 3.01 ± 0.03 nM, the tissue uptake at 1 h [3, 4] was 31.8 ± 2.49 %ID/g and the tissue uptake at 1 h [3, 5] was 2.39 ± 0.53 %ID/g. The tissue uptake at 1 h [3, 6] was 0.5 ± 0.21 %ID/g, the tissue uptake at 1 h [3, 7] was 1.23 ± 0.41 %ID/g and the tissue uptake at 1 h [3, 8] was 0.27 ± 0.03 %ID/g. For the same compound, the tissue uptake at 1 h [3, 9] was 1.84 ± 0.45 %ID/g, the tissue uptake at 1 h [3, 10] was 12.3 ± 3.4 %ID/g and the tissue uptake at 1 h [3, 11] was 1.22 ± 0.18 %ID/g. For the same compound, the tissue uptake at 1 h [3, 12] was 3.73 ± 0.57 %ID/g, the tissue uptake at 1 h [3, 13] was 0.1 ± 0.03 %ID/g and the tissue uptake at 1 h [3, 14] was 17.3 ± 2.87 %ID/g. For the same compound, the tissue uptake at 1 h [3, 15] was 0.55 ± 0.06 %ID/g and the tissue uptake at 1 h [3, 16] was 9.54 ± 1.83 %ID/g.
With CC(O)C(NC(=O)C1CSSCC(NC(=O)C(Cc2ccccc2)NC(=O)CNC(=O)CNC(=O)CNC(=O)[C@@H](CCCN)NC(=O)[C@@H](CCCN)NC(=O)C(CNC(=O)CN2CCN(CC(=O)O)CCN(CC(=O)O)CCN(CC(=O)O)CC2)NC(=O)C[N+](C)(C)Cc2ccc([Si](F)(C(C)(C)C)C(C)(C)C)cc2)C(=O)N[C@@H](Cc2ccc(O)cc2)C(=O)NC(Cc2c[nH]c3ccccc23)C(=O)N[C@@H](CCCCN)C(=O)N[C@@H]([C@@H](C)O)C(=O)N1)C(=O)O (stereo partly shown) (natGa complex, metal not drawn) [[Ga]55] the “LogDpH=7.4” value [1] was −1.69 ± 0.04 and the IC50 [2] was 4.1 ± 0.54 nM.
In the case of CC(O)C(NC(=O)C1CSSCC(NC(=O)C(Cc2ccccc2)NC(=O)CNC(=O)CNC(=O)CNC(=O)C(CC(N)=O)NC(=O)[C@@H](CC(N)=O)NC(=O)C(CNC(=O)CN2CCN(CC(=O)O)CCN(CC(=O)O)CCN(CC(=O)O)CC2)NC(=O)C[N+](C)(C)Cc2ccc([Si](F)(C(C)(C)C)C(C)(C)C)cc2)C(=O)N[C@@H](Cc2ccc(O)cc2)C(=O)NC(Cc2c[nH]c3ccccc23)C(=O)N[C@@H](CCCCN)C(=O)N[C@@H]([C@@H](C)O)C(=O)N1)C(=O)O (stereo partly shown) (natGa complex, metal not drawn) [[Ga]56], the “LogDpH=7.4” value [1] is reported as −1.51 ± 0.03 and the IC50 [2] is reported as 4 ± 0.34 nM.
For C[C@@H](O)[C@H](NC(=O)C1CSSCC(NC(=O)C(Cc2ccccc2)NC(=O)CNC(=O)CNC(=O)CNC(=O)C(CC(=O)O)NC(=O)[C@@H](CC(=O)O)NC(=O)C(CCCCN)NC(=O)[C@@H](CNC(=O)CN2CCN(CC(=O)O)CCN(CC(=O)O)CCN(CC(=O)O)CC2)NC(=O)C[N+](C)(C)Cc2ccc([Si](F)(C(C)(C)C)C(C)(C)C)cc2)C(=O)N[C@@H](Cc2ccc(O)cc2)C(=O)NC(Cc2c[nH]c3ccccc23)C(=O)N[C@@H](CCCCN)C(=O)N[C@@H]([C@@H](C)O)C(=O)N1)C(=O)O (stereo partly shown) (natGa complex, metal not drawn) [[Ga]57], the “LogDpH=7.4” value [1] was −2.25 ± 0.14 and the IC50 [2] was 4.74 ± 0.22 nM.
With C[C@@H](O)[C@H](NC(=O)C1CSSCC(NC(=O)C(Cc2ccccc2)NC(=O)CNC(=O)CNC(=O)CNC(=O)C(CC(=O)O)NC(=O)[C@@H](CC(=O)O)NC(=O)C(CCCNC(N)=O)NC(=O)[C@@H](CNC(=O)CN2CCN(CC(=O)O)CCN(CC(=O)O)CCN(CC(=O)O)CC2)NC(=O)C[N+](C)(C)Cc2ccc([Si](F)(C(C)(C)C)C(C)(C)C)cc2)C(=O)N[C@@H](Cc2ccc(O)cc2)C(=O)NC(Cc2c[nH]c3ccccc23)C(=O)N[C@@H](CCCCN)C(=O)N[C@@H]([C@@H](C)O)C(=O)N1)C(=O)O (stereo partly shown) (natGa complex, metal not drawn) [[Ga]58] the “LogDpH=7.4” value [1] was −2.31 ± 0.04 and the IC50 [2] was 4.41 ± 0.81 nM.
With C[C@@H](O)[C@@H]1NC(=O)[C@H](CCCCN)NC(=O)C(Cc2ccc(NC(N)=O)cc2)NC(=O)[C@H](Cc2ccc(NC(=O)C3CC(=O)NC(=O)N3)cc2)NC(=O)[C@H](NC(=O)[C@H](Cc2ccc(Cl)cc2)NC(=O)CNC(=O)CNC(=O)CNC(=O)C(CC(=O)O)NC(=O)[C@@H](CC(N)=O)NC(=O)C(CNC(=O)CN2CCN(CC(=O)O)CCN(CC(=O)O)CCN(CC(=O)O)CC2)NC(=O)C[N+](C)(C)Cc2ccc([Si](F)(C(C)(C)C)C(C)(C)C)cc2)CSSCC(C(=O)NC(Cc2ccc(O)cc2)C(N)=O)NC1=O (stereo partly shown) (natGa complex, metal not drawn) [[Ga]59] the “LogDpH=7.4” value [1] was −2.14 ± 0.03 and the IC50 [2] was 23.7 ± 1.5 nM.
In the case of C[C@@H](O)[C@H](NC(=O)C1CSSCC(NC(=O)C(Cc2ccccc2)NC(=O)CNC(=O)CNC(=O)CNC(=O)C(CC(=O)O)NC(=O)[C@@H](CC(=O)O)NC(=O)C(CNC(=O)CN2CCN(CC(=O)O)CCN(CC(=O)O)CCN(CC(=O)O)CC2)NC(=O)CNC(=O)C[N+](C)(C)Cc2ccc([Si](F)(C(C)(C)C)C(C)(C)C)cc2)C(=O)N[C@@H](Cc2ccc(O)cc2)C(=O)NC(Cc2c[nH]c3ccccc23)C(=O)N[C@@H](CCCCN)C(=O)N[C@@H]([C@@H](C)O)C(=O)N1)C(=O)O (stereo partly shown) (natGa complex, metal not drawn) [[Ga]60], the “LogDpH=7.4” value [1] is reported as −2.24 ± 0.05 and the IC50 [2] is reported as 4.15 ± 0.79 nM.

From patent publication US20240317780A1, “RADIOPHARMACEUTICAL SOMATOSTATIN RECEPTOR LIGANDS AND PRECURSORS THEREOF” (Technische Universität München, priority 2021, published 2024)
